Source: patent publication US8088761B2, “Enzyme inhibitors” (Cancer Research Technology Limited, priority 2005, dated 2012)

These compounds were tested against T1, Aurora-A (Homo sapiens, UniProt O14965) (assay: Flashplate Aurora A enzyme inhibition assay). Conditions: not given.
T1 sequence (O14965 1-403): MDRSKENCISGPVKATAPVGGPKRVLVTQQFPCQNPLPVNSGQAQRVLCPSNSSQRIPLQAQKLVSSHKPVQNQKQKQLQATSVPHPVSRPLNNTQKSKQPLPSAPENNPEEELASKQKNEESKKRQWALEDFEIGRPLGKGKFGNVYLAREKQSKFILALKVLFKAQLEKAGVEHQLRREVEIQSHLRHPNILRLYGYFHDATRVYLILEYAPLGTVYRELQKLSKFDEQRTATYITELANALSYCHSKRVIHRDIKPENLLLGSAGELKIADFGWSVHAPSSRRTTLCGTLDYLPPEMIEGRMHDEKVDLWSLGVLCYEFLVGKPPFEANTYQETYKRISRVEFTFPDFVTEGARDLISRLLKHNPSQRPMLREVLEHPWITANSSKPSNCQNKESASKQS
Format: biochemical
Experimental: Flashplate® Assay for Identification and Evaluation of Aurora-A Inhibitors
On this assay 384-well Basic Flashplate® (SMP400E, PerkinElmer) as solid assay platform was used. The plates were coated overnight at 4° C. with […] at 100 μg/ml in PBS buffer and used after being washed twice with PBS. 5 μl of compound in 2% DMSO was added to each well followed by 15 μl master mix of kinase buffer (50 mM Tris pH 7.5, 10 mM NaCl, 2.5 mM MgCl2, 1 mM […], 20 μM ATP, and 0.025 μCi/μl ^33P-ATP). Finally, 250 ng per well of Aurora-A enzyme was added. The plate was shaken for approximately 2 min on a flat-bed plate shaker (Wellmix, Denley, UK) and incubated for 2 hours at room temperature. The reaction was stopped by washing the plate twice on a 16-pin wash (ELX50 BioTek Instruments Ltd., Northstar, Bedford, UK) with 10 mM sodium pyrophosphate. The plate was then read on a TopCount-NX™ (PerkinElmer Life Sciences UK Ltd., Hounslow, UK).
In the case of `CN(C)c1ccc(-c2nc3c(N4CCN(C(=O)Nc5ccccc5)CC4)c(Br)cnc3[nH]2)cc1` [Example 39, 4-(6-Bromo-2-(4-(dimethylamino)phenyl)-3H-imidazo[4,5-b]pyridin-7-yl)-N-phenylpiperazine-1-carboxamide], the IC50 is reported as less than 500 nM.

Same assay, conditions: Flashplate assay; IC50 range; read-out: Aurora-A inhibition
`Clc1cnc2[nH]c(-c3ccc(Cn4cccn4)cc3)nc2c1N1CCN(Cc2cccnc2)CC1` [Example 138, 2-(4-((1H-Pyrazol-1-yl)methyl)phenyl)-6-chloro-7-(4-(pyridin-3-ylmethyl)piperazin-1-yl)-3H-imidazo[4,5-b]pyridine] was tested, and the IC50 was less than 500 nM.
Compound `CN(C)c1ccc(-c2nc3c(N4CCN(Cc5ccc(Cl)cc5)CC4)c(Br)cnc3[nH]2)cc1` [Example 26, 4-(6-Bromo-7-(4-(4-chlorobenzyl)piperazin-1-yl)-3H-imidazo[4,5-b]pyridin-2-yl)-N,N-dimethylaniline] has an IC50 of less than 500 nM.
With `COc1ccc(-c2nc3c(N4CCN(Cc5cncnc5)CC4)c(Br)cnc3[nH]2)cc1` [Example 121, 6-Bromo-2-(4-methoxyphenyl)-7-(4-(pyrimidin-5-ylmethyl)piperazin-1-yl)-3H-imidazo[4,5-b]pyridine] the IC50 was less than 500 nM.
In the case of `CC(c1ccccc1)N1CCN(c2c(Br)cnc3[nH]c(-c4ccc(N5CCN(C)CC5)cc4)nc23)CC1` (stereo not drawn) [Example 71, 6-Bromo-2-[4-(4-methyl-piperazin-1-yl)-phenyl]-7-[4-(1-phenyl-ethyl)-piperazin-1-yl]-3H-imidazo[4,5-b]pyridine], the IC50 is reported as less than 500 nM.
For `COc1ccc(-c2nc3c(N4CCN(Cc5csc(C(C)C)n5)CC4)c(Br)cnc3[nH]2)cc1` [Example 153, 4-((4-(6-Bromo-2-(4-methoxyphenyl)-3H-imidazo[4,5-b]pyridin-7-yl)piperazin-1-yl)methyl)-2-isopropylthiazole], the IC50 was less than 500 nM.
For `COc1ccc(C(=O)N2CCN(c3c(Cl)cnc4[nH]c(-c5ccc(N(C)C)cc5)nc34)CC2)cc1` [Example 18, (4-(6-Chloro-2-(4-(dimethylamino)phenyl)-3H-imidazo[4,5-b]pyridin-7-yl)piperazin-1-yl)(4-methoxyphenyl)methanone], the IC50 was 2000 to 10000 nM.
Work on `CC(C)(C)OC(=O)NCc1ccc(-c2nc3c(N4CCN(CC(=O)Nc5nccs5)CC4)c(Br)cnc3[nH]2)cc1` [Example 6, (4-{6-Bromo-7-[4-(thiazol-2-ylcarbamoylmethyl)-piperazin-1-yl]-3H-imidazo[4,5-b]pyridin-2-yl}-benzyl)-carbamic acid tert-butyl ester] yielded an IC50 of 500 to 2000 nM.
In the case of `CN(C)c1ccc(-c2nc3c(N4CCN(CCOc5ccccc5)CC4)c(Cl)cnc3[nH]2)cc1` [Example 9, (4-{6-Chloro-7-[4-(2-phenoxy-ethyl)-piperazin-1-yl]-3H-imidazo[4,5-b]pyridin-2-yl}-phenyl)-dimethyl-amine], the IC50 is reported as less than 500 nM.
`CC(C)(C)OC(=O)N1CCN(c2ccc(-c3nc4c(N5CCN(Cc6cccnc6)CC5)c(Br)cnc4[nH]3)cc2)CC1` [Example 103, tert-Butyl 4-(4-(6-bromo-7-(4-(pyridin-3-ylmethyl)piperazin-1-yl)-3H-imidazo[4,5-b]pyridin-2-yl)phenyl)piperazine-1-carboxylate] showed an IC50 of less than 500 nM.
For `COc1ccc(-c2nc3c(N4CCN(Cc5nccs5)CC4)c(Br)cnc3[nH]2)cc1` [Example 151, 2-((4-(6-Bromo-2-(4-methoxyphenyl)-3H-imidazo[4,5-b]pyridin-7-yl)piperazin-1-yl)methyl)thiazole], the IC50 was less than 500 nM.
`CN(C)c1ccc(-c2nc3c(N4CCNCC4)c(Br)cnc3[nH]2)cc1` [Example 15, [4-(6-Bromo-7-piperazin-1-yl-3H-imidazo[4,5-b]pyridin-2-yl)-phenyl]-dimethyl-amine] showed an IC50 of less than 500 nM.
For `CC(C)(C)OC(=O)NCc1cccc(-c2nc3c(N4CCN(Cc5cccnc5)CC4)c(Br)cnc3[nH]2)c1` [Example 91, tert-Butyl 3-(6-bromo-7-(4-(pyridin-3-ylmethyl)piperazin-1-yl)-3H-imidazo[4,5-b]pyridin-2-yl)benzylcarbamate], the IC50 was less than 500 nM.
`CC(C)c1nc(CN2CCN(c3c(Br)cnc4[nH]c(-c5ccc(CN6CCOCC6)cc5)nc34)CC2)co1` [Example 146, 4-(4-(6-Bromo-7-(4-((2-isopropyloxazol-4-yl)methyl)piperazin-1-yl)-3H-imidazo[4,5-b]pyridin-2-yl)benzyl)morpholine] showed an IC50 of less than 500 nM.
For `Cc1nc(CN2CCN(c3c(Br)cnc4[nH]c(-c5ccc(N6CCN(C(=O)OC(C)(C)C)CC6)cc5)nc34)CC2)cs1` [Example 158, tert-Butyl 4-(4-(6-bromo-7-(4-((2-methylthiazol-4-yl)methyl)piperazin-1-yl)-3H-imidazo[4,5-b]pyridin-2-yl)phenyl)piperazine-1-carboxylate], the IC50 was less than 500 nM.
`CN(C)c1ccc(-c2nc3c(N4CCN(CCNC(=O)Nc5ccccc5)CC4)c(Br)cnc3[nH]2)cc1` [Example 41, 1-(2-(4-(6-Bromo-2-(4-(dimethylamino)phenyl)-3H-imidazo[4,5-b]pyridin-7-yl)piperazin-1-yl)ethyl)-3-phenylurea] gave an IC50 of less than 500 nM.
`CC(c1ccccc1)N1CCN(c2c(Br)cnc3[nH]c(-c4ccc(N5CCC(O)CC5)cc4)nc23)CC1` (stereo not drawn) [Example 88, 1-(4-{6-Bromo-7-[4-(1-phenyl-ethyl)-piperazin-1-yl]-3H-imidazo[4,5-b]pyridin-2-yl}-phenyl)-piperidin-4-ol] gave an IC50 of less than 500 nM.
Work on `CN(C)c1ccc(-c2nc3c(N4CCN(Cc5c(F)cccc5Cl)CC4)c(Cl)cnc3[nH]2)cc1` [Example 16, 4-(6-Chloro-7-(4-(2-chloro-6-fluorobenzyl)piperazin-1-yl)-3H-imidazo[4,5-b]pyridin-2-yl)-N,N-dimethylaniline] yielded an IC50 of 500 to 2000 nM.
In the case of `COc1ncccc1-c1nc2c(N3CCN(Cc4cccnc4)CC3)c(Br)cnc2[nH]1` [Example 55, 6-Bromo-2-(2-methoxypyridin-3-yl)-7-(4-(pyridin-3-ylmethyl)piperazin-1-yl)-3H-imidazo[4,5-b]pyridine], the IC50 is reported as 500 to 2000 nM.
`CN(C)c1ccc(-c2nc3c(N4CCN(c5ccccc5)CC4)c(Br)cnc3[nH]2)cc1` [Example 48, 4-(6-Bromo-7-(4-phenylpiperazin-1-yl)-3H-imidazo[4,5-b]pyridin-2-yl)-N,N-dimethylaniline] showed an IC50 of less than 500 nM.
With `CCNC(=O)N1CCN(c2c(Br)cnc3[nH]c(-c4ccc(N(C)C)cc4)nc23)CC1` [Example 43, 4-(6-Bromo-2-(4-(dimethylamino)phenyl)-3H-imidazo[4,5-b]pyridin-7-yl)-N-ethylpiperazine-1-carboxamide] the IC50 was less than 500 nM.
Work on `Cc1nc(CN2CCN(c3c(Br)cnc4[nH]c(-c5ccc(CN6CCN(C(=O)OC(C)(C)C)CC6)cc5)nc34)CC2)cs1` [Example 157, tert-Butyl 4-(4-(6-bromo-7-(4-((2-methylthiazol-4-yl)methyl)piperazin-1-yl)-3H-imidazo[4,5-b]pyridin-2-yl)benzyl)piperazine-1-carboxylate] yielded an IC50 of less than 500 nM.
`FC(F)(F)c1ccc(CN2CCN(c3c(Br)cnc4[nH]c(-c5ccc(N6CCOCC6)cc5)nc34)CC2)cn1` [Example 126, 4-(4-(6-Bromo-7-(4-((6-(trifluoromethyl)pyridin-3-yl)methyl)piperazin-1-yl)-3H-imidazo[4,5-b]pyridin-2-yl)phenyl)morpholine] showed an IC50 of less than 500 nM.
`CCN1CCN(c2c(Br)cnc3[nH]c(-c4ccc(N(C)C)cc4)nc23)CC1` [Example 47, 4-(6-Bromo-7-(4-ethylpiperazin-1-yl)-3H-imidazo[4,5-b]pyridin-2-yl)-N,N-dimethylaniline] gave an IC50 of 500 to 2000 nM.
In the case of `CCOC(=O)C1CC1c1nc2c(N3CCN(CC(=O)Nc4nccs4)CC3)c(Br)cnc2[nH]1` (stereo not drawn) [Example 45, Ethyl 2-(6-bromo-7-(4-(2-oxo-2-(thiazol-2-ylamino)ethyl)piperazin-1-yl)-3H-imidazo[4,5-b]pyridin-2-yl)cyclopropanecarboxylate], the IC50 is reported as 500 to 2000 nM.

Each compound was assayed on HCT116 cells (assay: Cell viability assay (MTT) in HCT116 cell line). Conditions: Homo sapiens, HCT-116, 72 hrs, IC50 range, read-out: HCT116 cell growth inhibition.
Format: cell-based
Experimental: Cell Viability Assay: Determination of IC50 of Aurora Inhibitors in HCT116 Cell Line Using MTT Assay. The effects of compounds of the Examples on cellular proliferation were determined using the MTT assay according to manufacturer's instructions (Sigma). Briefly, the human colon tumour cells HCT116, were seeded in triplicate into 96-well plates at 2500 cells/well 24 hours before treatment with a range of concentrations of Aurora inhibitors (0-50 μM). After 72 hrs, 15 μl/well of 0.5% 3-(4,5-dimethylthiazol-2-yl)-2,5-diphenyltetrazolium bromide (MTT) was added to the cells for 4 hrs at 37° C., the dye-stained viable cells were extracted by adding 150 μl/well of dimethyl sulphoxide (DMSO). […] The IC50 was calculated using the Prism software.
Work on `Clc1cnc2[nH]c(-c3ccc(Cn4cccn4)cc3)nc2c1N1CCN(Cc2cccnc2)CC1` [Example 138, 2-(4-((1H-Pyrazol-1-yl)methyl)phenyl)-6-chloro-7-(4-(pyridin-3-ylmethyl)piperazin-1-yl)-3H-imidazo[4,5-b]pyridine] yielded an IC50 of 500 to 2000 nM.
With `CN(C)c1ccc(-c2nc3c(N4CCN(Cc5ccc(Cl)cc5)CC4)c(Br)cnc3[nH]2)cc1` [Example 26, 4-(6-Bromo-7-(4-(4-chlorobenzyl)piperazin-1-yl)-3H-imidazo[4,5-b]pyridin-2-yl)-N,N-dimethylaniline] the IC50 was less than 500 nM.
In the case of `COc1ccc(-c2nc3c(N4CCN(Cc5cncnc5)CC4)c(Br)cnc3[nH]2)cc1` [Example 121, 6-Bromo-2-(4-methoxyphenyl)-7-(4-(pyrimidin-5-ylmethyl)piperazin-1-yl)-3H-imidazo[4,5-b]pyridine], the IC50 is reported as less than 500 nM.
For `CC(c1ccccc1)N1CCN(c2c(Br)cnc3[nH]c(-c4ccc(N5CCN(C)CC5)cc4)nc23)CC1` (stereo not drawn) [Example 71, 6-Bromo-2-[4-(4-methyl-piperazin-1-yl)-phenyl]-7-[4-(1-phenyl-ethyl)-piperazin-1-yl]-3H-imidazo[4,5-b]pyridine], the IC50 was less than 500 nM.
`Brc1cnc2[nH]c(-c3ccc(CN4CCOCC4)cc3)nc2c1N1CCN(Cc2ccncc2)CC1` [Example 68, 6-Bromo-2-(4-morpholin-4-ylmethyl-phenyl)-7-(4-pyridin-4-ylmethyl-piperazin-1-yl)-3H-imidazo[4,5-b]pyridine] showed an IC50 of less than 500 nM.
